Source: publication PMC5520492, “Inhibition of DNA2 nuclease as a therapeutic strategy targeting replication stress in cancer cells” (Oncogenesis, 2017)
Entries after “also recorded” stand apart in the source; their conditions may differ.

Legend:
Format in all cases: cell-based, human
[1] = tested on: Hs578T and BT549 versus MCF10A cells; experiment: MTT proliferation, breast cell lines; conditions: 48-h treatment
Method: (§1) Figure 5 Oncogene induction enhances sensitivity of cancer cells to NSC-105808. (a-e) Graphs showing proliferation of indicated cell lines in response to a 48-h treatment with the indicated concentrations of NSC-105808. Proliferation relative to cells treated with vehicle alone was determined by the 3-(4,5-dimethylthiazol-2-yl)-2,5-diphenyltetrazolium bromide (MTT) assay. Each value represents the mean±s.e.m. from three independent experiments. (a) Proliferation of control pancreatic epithelial cells DT-PD59 and transformed pancreatic cancer cells AsPC-1 and PANC-1. (b) Proliferation of normal breast epithelial cells MCF10A and breast cancer cells Hs578T and BT549. (c) Proliferation of MCF10A cells with or without H-Ras expression. H-Ras was induced with doxycycline (2 μg/ml). […]
(§2) Cell proliferation was measured by 3-(4,5-dimethylthiazol-2-yl)-2,5-diphenyltetrazolium bromide (Sigma) reduction (Supplementary Materials and Methods).
(§3) To determine the cell proliferation rate, 1000 cells/well were seeded in a 96-well plate in a total volume of 100 µl in triplicate in each experiment. […] Plates were read at 490 nm and 650 nm (background) in a
(§4) microplate reader (Molecular Devices). After the subtraction of background, cell viability was calculated as fold change relative to control cells.

[2] = tested on: MCF10A cells with inducible H-Ras expression; experiment: MTT proliferation, MCF10A with inducible H-Ras; conditions: 48-h treatment, doxycycline induction
Method: as §1, §2, §3, §4

[3] = tested on: DT-PD77 cells with E6/E7 oncoprotein versus DT-PD59; experiment: MTT proliferation, DT-PD59 versus E6/E7 DT-PD77; conditions: 48-h treatment
Method: as §1, §2, §3, §4

[4] = tested on: U2OS cells containing DR-GFP reporter; experiment: DR-GFP gene conversion (HR) reporter assay; conditions: 24-h treatment
Method: (§5) Figure 4 NSC-105808 inhibits HR repair and DSB end resection. (a) Analysis of HR efficiency with the DR-green fluorescent protein (GFP) assay. Representative images of flow cytometry analysis and bar graph showing percentage of GFP cells from at least three independent experiments. Each value represents the mean±s.d. (b, c) Analysis of RPA phosphorylation in U2OS cells treated with NSC-105808 (2 h, 0.3 μM) and/or camptothecin (CPT; 2 h, 1 μM). (b) Representative images of cells subjected to immunofluorescent staining of p-RPA and bar graph showing percentage of cells with positive p-RPA staining from three independent experiments. Each value represents the mean±s.d. (c) Western blot analysis of chromatin fraction with the indicated antibodies. (d) Analysis of colony formation by FANCD2 (+/+) and FANCD2 (−/−) cells treated with cisplatin and/or NSC-105808. Each value is relative to the untreated control group of each cell line. The graph represents the mean±s.e.m. from three independent experiments. *P<0.01.
The DR-green fluorescent protein, pCAGGS and pCBASce plasmids were kindly provided by Dr Maria Jasin (Memorial Sloan-Kettering Cancer Center, New York, NY, USA). […]
The GFP expressing plasmid (pEGFP-C1) was used for transfection efficiency control. […] Efficiency of HR and SSA was calculated by normalizing I-SceI-induced GFP expression with EGFP transfection-induced GFP expression. […]

DNA2 protein level = experiment: Western blot of cellular DNA2 protein level; conditions: U2OS, PANC-1, Hs578T; up to 12 hrs
Method: Figure S8. Analysis of DNA2 protein levels in cells treated with NSC-105808. U2OS (a), PANC-1 (b) and Hs578T (c) cells were treated with the indicated concentrations of NSC-105808 for 4 hours (right) or with a single concentration of NSC-105808 (0.3 µM for U2OS and Hs578T cells; 0.6 µM for PANC-1 cells) for 0, 4, 8, or 12 hrs (left). The results were quantified and are shown below each panel, with the error bars representing the mean ± SD of three independent experiments.

[5] = tested on: MCF10AT1, MCF10-DCIS, MCF10CA1a versus MCF10A cells; experiment: MTT proliferation, MCF10A progression series; conditions: 48-h treatment
Method: as §1, §2, §3, §4

U2OS cells = experiment: RPA phosphorylation after camptothecin (immunofluorescence, chromatin fractionation); conditions: NSC-105808 2 h, 0.3 μM; CPT 2 h, 1 μM
Method: as §5
For the detection of DNA damage-induced p-RPA34 (S4/S8), immunofluorescent staining, and the preparation of chromatin fractions and western blot analyses were performed as described previously.[33], [48]

With NC1=C(Br)C(=O)c2ncccc2C1=O [NSC-105808, 6-amino-7-bromoquinoline-5,8-dione] the “Sensitivity of transformed breast cancer cells compared with MCF10A” value [1] was “more sensitive”, the “Sensitivity upon activation of H-Ras” value [2] was “increased sensitivity” and the “Sensitivity in cells with E6/E7 oncoprotein-induced replication stress” value [3] was “higher”. For the same molecule, the “DSB repair by gene conversion” value [4] was “significantly reduced”, the “Impact on cellular level of DNA2 protein” value (DNA2 protein level) was “No statistically significant difference; also recorded: no impact” and the “Sensitivity of cell lines with oncogene activation compared with MCF10A control” value [5] was “more sensitive”. For the same molecule, the “Accumulation of camptothecin-induced p-RPA” value (U2OS cells) was “significantly attenuated” and the “γ-H2AX level in chromatin fraction” value (U2OS cells) was “concomitant enhancement”.
